From publication PMC8752759, “GSNOR regulates ganoderic acid content in Ganoderma lucidum under heat stress through S-nitrosylation of catalase” (Communications Biology, 2022) come the findings set out here.

SMILES strings stand for the structures.

Holding throughout (format): biochemical
For test [1], the target named is T1, CAT (catalase) (Ganoderma lucidum, UniProt A0A223M0M1, C671S).
T1 construct: recombinant, pColdI vector, His-tagged, E. coli BL21(DE3), Ni-NTA purified; 6 cysteine residues
T1 sequence (A0A223M0M1 entry or part of it C671S): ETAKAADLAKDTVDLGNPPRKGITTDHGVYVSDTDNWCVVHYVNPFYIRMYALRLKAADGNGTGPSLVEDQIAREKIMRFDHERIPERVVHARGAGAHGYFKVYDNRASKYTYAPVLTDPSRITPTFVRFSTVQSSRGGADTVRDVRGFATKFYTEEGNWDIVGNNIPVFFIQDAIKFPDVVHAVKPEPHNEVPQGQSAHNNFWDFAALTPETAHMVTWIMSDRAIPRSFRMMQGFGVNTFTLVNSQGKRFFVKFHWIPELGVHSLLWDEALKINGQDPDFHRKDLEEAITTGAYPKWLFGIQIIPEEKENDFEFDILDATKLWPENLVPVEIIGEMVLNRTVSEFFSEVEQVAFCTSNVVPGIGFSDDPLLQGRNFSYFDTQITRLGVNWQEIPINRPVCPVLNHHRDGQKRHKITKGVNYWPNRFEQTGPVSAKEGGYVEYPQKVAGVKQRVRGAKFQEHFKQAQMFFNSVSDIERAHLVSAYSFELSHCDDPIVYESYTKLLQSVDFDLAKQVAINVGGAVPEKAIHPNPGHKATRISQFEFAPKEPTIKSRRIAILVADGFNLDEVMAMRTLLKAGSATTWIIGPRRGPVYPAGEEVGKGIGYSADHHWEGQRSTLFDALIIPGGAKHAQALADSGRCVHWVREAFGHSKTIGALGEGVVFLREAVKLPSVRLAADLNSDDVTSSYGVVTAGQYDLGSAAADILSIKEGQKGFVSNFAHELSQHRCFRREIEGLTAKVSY
Nature of the test: biotin-switch immunoblot; CAT activity by H2O2 decomposition at […] nm. The conditions noted are these: covalent; S-nitrosylation; room temperature, dark, 60 min.

Test [2] concerns the target T2, CAT (catalase) (Ganoderma lucidum, UniProt A0A223M0M1, C660S).
T2 construct: recombinant, pColdI vector, His-tagged, E. coli BL21(DE3), Ni-NTA purified; 6 cysteine residues
The test is described as above. The note with it: covalent; S-nitrosylation; room temperature, dark, 60 min.

The target of test [3] is T3, CAT (catalase) (Ganoderma lucidum, UniProt A0A223M0M1, C419S).
T3 construct: recombinant, pColdI vector, His-tagged, E. coli BL21(DE3), Ni-NTA purified; 6 cysteine residues
T3 sequence (A0A223M0M1 entry or part of it C419S): as the sequence (A0A223M0M1 entry or part of it C671S) above, with C401S, S653C counted along it
The description is as above. The note with it: covalent; S-nitrosylation; room temperature, dark, 60 min.

The target of test [4] is T4, CAT (catalase) (Ganoderma lucidum, UniProt A0A223M0M1).
T4 construct: recombinant, pColdI vector, His-tagged, E. coli BL21(DE3), Ni-NTA purified; 6 cysteine residues
T4 sequence (A0A223M0M1 entry or part of it): as the sequence (A0A223M0M1 entry or part of it C671S) above, with S653C counted along it
The experiment in a line: biotin-switch immunoblot, LC-MS/MS of sites; CAT activity by H2O2 decomposition at […] nm. The note with it: covalent; S-nitrosylation at Cys401, Cys642, Cys653; room temperature, dark, 60 min; activating.

T2 sequence (A0A223M0M1 entry or part of it C660S): as the sequence (A0A223M0M1 entry or part of it C671S) above, with C642S, S653C counted along it

Take `N[C@@H](CCC(=O)N[C@@H](CSN=O)C(=O)NCC(=O)O)C(=O)O` [GSNO, S-nitrosoglutathione]: the “biotin-switch immunoblot; CAT activity by H2O2 decomposition at 240 nm” value is “The C401S, C642S, and C653S single mutants” in test [1]; “The C401S, C642S, and C653S single mutants” in test [2]; “The C401S, C642S, and C653S single mutants” in test [3]. The “biotin-switch immunoblot, LC-MS/MS of sites; CAT activity by H2O2 decomposition” value in test [4] is “CAT was S-nitrosylated, which was induced by GSNO”.
